Experimental data as given in ChEMBL document CHEMBL3044722, “Potent enantioselective auxin: indole-3-succinic acid” (2002).

Columns and labels:
Type in all cases: functional
Fuchsia [1] = experiment: Induction of root growth in varigated Fuchsia hybrida at 10^-7 M after 7 to 34 days relative to indole-3-butyric acid
Fuchsia [2] = experiment: Induction of root growth in swingtime Fuchsia hybrida at 10^-7 M after 7 to 34 days relative to indole-3-butyric acid
Fuchsia [3] = experiment: Induction of root growth in varigated Fuchsia hybrida at 10^-8 M after 7 to 34 days relative to indole-3-butyric acid
Fuchsia [4] = experiment: Induction of root growth in swingtime Fuchsia hybrida at 10^-8 M after 7 to 34 days relative to indole-3-butyric acid

Structure (SMILES)	Ratio (Fuchsia [1])	Ratio (Fuchsia [2])	Ratio (Fuchsia [3])	Ratio (Fuchsia [4])
O=C(O)Cc1c[nH]c2ccccc12 [INDOLE-3-ACETIC ACID]	0	0		
O=C(O)CC(C(=O)O)c1c[nH]c2ccccc12 (racemic)		7		
O=C(O)C[C@@H](C(=O)O)c1c[nH]c2ccccc12	0.7	5.6	4.4	7.1
O=C(O)C[C@H](C(=O)O)c1c[nH]c2ccccc12	3.8	5.7	4.6	4.8
